Results from the NIST ThermoML archive (doi:10.1021/je700254t).
± gives the expanded uncertainty stated by the source.

Test: xn = mol fraction of the nth substance listed
Conditions: 101.3 kPa, Liquid

With `c1ccccc1` [benzene] + CCCO the mass density (288.15 K, x2 = 0) was 884.246 ± 0.16 kg/m3, the mass density (288.15 K, x2 = 0.022) was 882.511 ± 0.16 kg/m3 and the mass density (288.15 K, x2 = 0.0557) was 880.03 ± 0.17 kg/m3. It also gave a mass density (288.15 K, x2 = 0.0984) of 876.959 ± 0.17 kg/m3, a mass density (288.15 K, x2 = 0.1632) of 872.435 ± 0.17 kg/m3 and a mass density (288.15 K, x2 = 0.2186) of 868.541 ± 0.18 kg/m3. It also gave a mass density (288.15 K, x2 = 0.2385) of 867.148 ± 0.18 kg/m3, a mass density (288.15 K, x2 = 0.3046) of 862.546 ± 0.18 kg/m3 and a mass density (288.15 K, x2 = 0.3993) of 855.836 ± 0.19 kg/m3. The mass density (288.15 K, x2 = 0.4505) was 852.174 ± 0.19 kg/m3, the mass density (288.15 K, x2 = 0.5023) was 848.393 ± 0.2 kg/m3 and the mass density (288.15 K, x2 = 0.6035) was 840.846 ± 0.21 kg/m3. The mass density (288.15 K, x2 = 0.66) was 836.494 ± 0.21 kg/m3, the mass density (288.15 K, x2 = 0.7035) was 833.115 ± 0.22 kg/m3 and the mass density (288.15 K, x2 = 0.7453) was 829.801 ± 0.22 kg/m3. The mass density (288.15 K, x2 = 0.8016) was 825.211 ± 0.23 kg/m3, the mass density (288.15 K, x2 = 0.8447) was 821.474 ± 0.23 kg/m3 and the mass density (288.15 K, x2 = 0.8981) was 816.954 ± 0.24 kg/m3. For the same molecule, the mass density (288.15 K, x2 = 0.9495) was 812.375 ± 0.24 kg/m3, the mass density (293.15 K, x2 = 0) was 878.918 ± 0.17 kg/m3 and the mass density (293.15 K, x2 = 0.022) was 877.177 ± 0.17 kg/m3. For the same molecule, the mass density (293.15 K, x2 = 0.0557) was 874.714 ± 0.17 kg/m3, the mass density (293.15 K, x2 = 0.0984) was 871.673 ± 0.17 kg/m3 and the mass density (293.15 K, x2 = 0.1632) was 867.203 ± 0.18 kg/m3. The mass density (293.15 K, x2 = 0.2186) was 863.367 ± 0.18 kg/m3, the mass density (293.15 K, x2 = 0.2385) was 861.999 ± 0.18 kg/m3 and the mass density (293.15 K, x2 = 0.3046) was 857.468 ± 0.19 kg/m3. For the same molecule, the mass density (293.15 K, x2 = 0.3993) was 850.881 ± 0.19 kg/m3, the mass density (293.15 K, x2 = 0.4505) was 847.288 ± 0.2 kg/m3 and the mass density (293.15 K, x2 = 0.5023) was 843.581 ± 0.2 kg/m3. For the same molecule, the mass density (293.15 K, x2 = 0.6035) was 836.186 ± 0.21 kg/m3, the mass density (293.15 K, x2 = 0.66) was 831.916 ± 0.22 kg/m3 and the mass density (293.15 K, x2 = 0.7035) was 828.615 ± 0.22 kg/m3. For the same molecule, the mass density (293.15 K, x2 = 0.7453) was 825.366 ± 0.22 kg/m3, the mass density (293.15 K, x2 = 0.8016) was 820.875 ± 0.23 kg/m3 and the mass density (293.15 K, x2 = 0.8447) was 817.209 ± 0.23 kg/m3. For the same molecule, the mass density (293.15 K, x2 = 0.8981) was 812.786 ± 0.24 kg/m3, the mass density (293.15 K, x2 = 0.9495) was 808.313 ± 0.24 kg/m3 and the mass density (298.15 K, x2 = 0) was 873.582 ± 0.17 kg/m3. It also gave a mass density (298.15 K, x2 = 0.022) of 871.937 ± 0.17 kg/m3, a mass density (298.15 K, x2 = 0.0557) of 869.383 ± 0.17 kg/m3 and a mass density (298.15 K, x2 = 0.0984) of 866.369 ± 0.18 kg/m3. It also gave a mass density (298.15 K, x2 = 0.1632) of 861.955 ± 0.18 kg/m3, a mass density (298.15 K, x2 = 0.2186) of 858.172 ± 0.18 kg/m3 and a mass density (298.15 K, x2 = 0.2385) of 856.826 ± 0.19 kg/m3. The mass density (298.15 K, x2 = 0.3046) was 852.368 ± 0.19 kg/m3, the mass density (298.15 K, x2 = 0.3993) was 845.896 ± 0.2 kg/m3 and the mass density (298.15 K, x2 = 0.4505) was 842.37 ± 0.2 kg/m3. The mass density (298.15 K, x2 = 0.5023) was 838.736 ± 0.21 kg/m3, the mass density (298.15 K, x2 = 0.6035) was 831.492 ± 0.21 kg/m3 and the mass density (298.15 K, x2 = 0.66) was 827.312 ± 0.22 kg/m3. For the same molecule, the mass density (298.15 K, x2 = 0.7035) was 824.081 ± 0.22 kg/m3, the mass density (298.15 K, x2 = 0.7453) was 820.902 ± 0.23 kg/m3 and the mass density (298.15 K, x2 = 0.8016) was 816.507 ± 0.23 kg/m3. For the same molecule, the mass density (298.15 K, x2 = 0.8447) was 812.998 ± 0.24 kg/m3, the mass density (298.15 K, x2 = 0.8981) was 808.589 ± 0.24 kg/m3 and the mass density (298.15 K, x2 = 0.9495) was 804.141 ± 0.25 kg/m3. For the same molecule, the mass density (303.15 K, x2 = 0) was 868.233 ± 0.17 kg/m3, the mass density (303.15 K, x2 = 0.022) was 866.489 ± 0.18 kg/m3 and the mass density (303.15 K, x2 = 0.0557) was 864.034 ± 0.18 kg/m3. It also gave a mass density (303.15 K, x2 = 0.0984) of 861.047 ± 0.18 kg/m3, a mass density (303.15 K, x2 = 0.1632) of 856.682 ± 0.18 kg/m3 and a mass density (303.15 K, x2 = 0.2186) of 852.95 ± 0.19 kg/m3. It also gave a mass density (303.15 K, x2 = 0.2385) of 851.625 ± 0.19 kg/m3, a mass density (303.15 K, x2 = 0.3046) of 847.234 ± 0.19 kg/m3 and a mass density (303.15 K, x2 = 0.3993) of 840.877 ± 0.2 kg/m3. The mass density (303.15 K, x2 = 0.4505) was 837.417 ± 0.2 kg/m3, the mass density (303.15 K, x2 = 0.5023) was 833.856 ± 0.21 kg/m3 and the mass density (303.15 K, x2 = 0.6035) was 826.762 ± 0.22 kg/m3. It also gave a mass density (303.15 K, x2 = 0.66) of 822.69 ± 0.22 kg/m3, a mass density (303.15 K, x2 = 0.7035) of 819.512 ± 0.23 kg/m3 and a mass density (303.15 K, x2 = 0.7453) of 816.4 ± 0.23 kg/m3. The mass density (303.15 K, x2 = 0.8016) was 812.105 ± 0.24 kg/m3, the mass density (303.15 K, x2 = 0.8447) was 808.593 ± 0.24 kg/m3 and the mass density (303.15 K, x2 = 0.8981) was 804.36 ± 0.24 kg/m3. The mass density (303.15 K, x2 = 0.9495) was 800.008 ± 0.25 kg/m3, the mass density (308.15 K, x2 = 0) was 862.871 ± 0.18 kg/m3 and the mass density (308.15 K, x2 = 0.022) was 861.124 ± 0.18 kg/m3. It also gave a mass density (308.15 K, x2 = 0.0557) of 858.669 ± 0.18 kg/m3, a mass density (308.15 K, x2 = 0.0984) of 855.699 ± 0.18 kg/m3 and a mass density (308.15 K, x2 = 0.1632) of 851.38 ± 0.19 kg/m3. It also gave a mass density (308.15 K, x2 = 0.2186) of 847.699 ± 0.19 kg/m3, a mass density (308.15 K, x2 = 0.2385) of 846.396 ± 0.19 kg/m3 and a mass density (308.15 K, x2 = 0.3046) of 842.067 ± 0.2 kg/m3. The mass density (308.15 K, x2 = 0.3993) was 835.823 ± 0.2 kg/m3, the mass density (308.15 K, x2 = 0.4505) was 832.428 ± 0.21 kg/m3 and the mass density (308.15 K, x2 = 0.5023) was 828.935 ± 0.21 kg/m3. The mass density (308.15 K, x2 = 0.6035) was 821.989 ± 0.22 kg/m3, the mass density (308.15 K, x2 = 0.66) was 817.981 ± 0.23 kg/m3 and the mass density (308.15 K, x2 = 0.7035) was 814.9 ± 0.23 kg/m3. The mass density (308.15 K, x2 = 0.7453) was 811.856 ± 0.23 kg/m3, the mass density (308.15 K, x2 = 0.8016) was 807.61 ± 0.24 kg/m3 and the mass density (308.15 K, x2 = 0.8447) was 804.229 ± 0.24 kg/m3. For the same molecule, the mass density (308.15 K, x2 = 0.8981) was 800.093 ± 0.25 kg/m3, the mass density (308.15 K, x2 = 0.9495) was 795.838 ± 0.25 kg/m3 and the mass density (313.15 K, x2 = 0) was 857.498 ± 0.18 kg/m3. It also gave a mass density (313.15 K, x2 = 0.022) of 855.764 ± 0.18 kg/m3, a mass density (313.15 K, x2 = 0.0557) of 853.296 ± 0.19 kg/m3 and a mass density (313.15 K, x2 = 0.0984) of 850.343 ± 0.19 kg/m3. For the same molecule, the mass density (313.15 K, x2 = 0.1632) was 846.063 ± 0.19 kg/m3, the mass density (313.15 K, x2 = 0.2186) was 842.427 ± 0.2 kg/m3 and the mass density (313.15 K, x2 = 0.2385) was 841.156 ± 0.2 kg/m3. It also gave a mass density (313.15 K, x2 = 0.3046) of 836.875 ± 0.2 kg/m3, a mass density (313.15 K, x2 = 0.3993) of 830.744 ± 0.21 kg/m3 and a mass density (313.15 K, x2 = 0.4505) of 827.425 ± 0.21 kg/m3. It also gave a mass density (313.15 K, x2 = 0.5023) of 823.986 ± 0.22 kg/m3, a mass density (313.15 K, x2 = 0.6035) of 817.183 ± 0.23 kg/m3 and a mass density (313.15 K, x2 = 0.66) of 813.261 ± 0.23 kg/m3. It also gave a mass density (313.15 K, x2 = 0.7035) of 810.256 ± 0.23 kg/m3, a mass density (313.15 K, x2 = 0.7453) of 807.285 ± 0.24 kg/m3 and a mass density (313.15 K, x2 = 0.8016) of 803.184 ± 0.24 kg/m3. For the same molecule, the mass density (313.15 K, x2 = 0.8447) was 799.833 ± 0.25 kg/m3, the mass density (313.15 K, x2 = 0.8981) was 795.804 ± 0.25 kg/m3 and the mass density (313.15 K, x2 = 0.9495) was 791.644 ± 0.26 kg/m3.
